What was measured:
NF-kB (p65) / IkB = assay: Nuclear p65 / cytosolic IkB western blot in LPS-treated RAW264.7 macrophages; format: cell-based, mouse; conditions: 20 μg/ml, 100 ng/ml LPS for 30 minutes
Procedure: (§1) Western blots. Total cellular extract, cytosolic fractions (for IkB) and nuclear fraction (for p65 antibody) were prepared according to Muller et al., Immunobiology, 187, 233-256, 1993 and separated on sodium dodecyl sulfatepolyacrylamide minigels (8% for iNOS or COX-2, and 10% for IkB or p65) and transferred to immobilon polyvinylidene difluoride membranes (Millipore, Bedford, Mass.). The membrane was incubated overnight at 4° C. with 1% bovine serum albumin and then incubated with anti-iNos, COX-2, α-Tubulin monoclonal antibodies (Transduction Laboratories, Lexington, Ky.), anti-IkB or anti-p65 polyclonal antibodies (Santa Cruz Biochemicals, Santa Cruz, Calif.). iNOS, IkB, p65, Cox-2, α-Tubulin were detected by NBT and BCIP staining (Sigma Chemical Co., St. Louis, Mo.).
NF-kB is a transcription factor that is activated in response to stimulation by LPS, and activation of NF-kB is an essential factor in inducing iNOS gene expression in macrophages (Kim, Y. M., Biochem. Biophys. Res. Commun. 236, 655-660, 1997). To assess the effect of these compounds (20 μg/ml) on early stage of iNOS gene expression, the activation of NF-kB in RAW264.7 macrophages was examined using the electrophoretic mobility shift assay (EMSA) (FIGS. 6i and 6ii).

[1] = test system: porcine cerebral arteries; assay: In vitro tissue bath vasorelaxation of precontracted porcine cerebral arteries
COX-2 [2] = assay: COX-2 enzyme activity: PGE2 from added arachidonic acid in LPS-treated RAW 264.7 cells; format: cell-based, mouse; conditions: for PGE2: then arachidonic acid (100 μM) 15 min; for PGE2 production using added arachidonic acid as a substrate: added after COX-2 induction by LPS
[3] = test system: LPS-induced NO production in RAW264.7 macrophages; assay: LPS-induced nitrite (NO) production in RAW264.7 macrophages, Griess reaction; format: cell-based, mouse; conditions: for NO: 24 hours
Procedure: (§2) Cells. RAW264.7, a mouse macrophage cell line, was obtained from American Type Culture Collection. Cells were cultured in RPMI-1640 medium (available from Gibco Life Technology, in Gaithersburg, Md.) supplemented with 2 mM L-glutamine, antibiotics (100 units/ml penicillin-A and 100 units/ml streptomycin) and 10% heat-inactivated fetal bovine serum (Gibco/BRL) and maintained at 37° C in a humidified incubator containing 5% CO2.
Nitrite assay. The nitrite concentration in the medium was measured as an indicator of NO production according to the Griess reaction (Kim et al., J. Immunol. 153: 4741-4748). One hundred microliters of each supernatant was. mixed with the same volume of Griess reagent (1% sulfanilamide in 5% phosphoric acid and 0. 1% naphthylethylenediamine dihydrochloride in water); absorbency of the mixture at 550 nm was determined with an enzyme-linked immunosorbent assay plate reader (Dynatech MR-7000; Dynatech Labs, Chantilly, Va.).
The effects of flavonoids, ellagitannins, anthraquinones on LPS-induced NO production in macrophages were studied as follows. The chemical structures of two flavonoids (myricitrin, N1; oroxylin A, N2) four ellagitannins (penta-O-galloyl-β-glucopyranose, N3; woodfordin C, N4; onothein B, N5; cuphiin, N6), and two anthraquinones (emodin, N7; physcion, N8) that were used in the present study were shown in FIG. 1. The effects of these eight compounds on NO production in RAW264.7 macrophages were investigated. The accumulated nitrite in the culture medium was used as an index for NO synthesis from these cells. […]

iNOS [4] = assay: Indirect iNOS enzyme assay: NO in medium of LPS-pretreated intact RAW 264.7 cells; format: cell-based, mouse
iNOS [5] = assay: LPS-induced iNOS expression in RAW264.7 macrophages (western/northern blot); format: cell-based, mouse; conditions: for increased expression of iNOS in NLA or L-NAME plus LPS treated cells: NLA (or L-NAME) plus LPS co-treated
Procedure: as §2, §1
Northern blot analysis. Total RNA (20 μg/lane) were separated by electrophoresis on 1.2% agarose gel containing 6.7% formaldehyde and transformed to a Hybond-N nylon membrane (American Life Science) in 20×standard saline citrate (3 M sodium chloride and 0.3 M sodium citrate, pH 7.0). After heating at 80° C. for 2 hours and prehybridization for 4 hours, the filters were hybridized with ^32P-labeled murine iNOS cDNA probes at a concentration of 3×10^6 cpm/ml for 16-18 hours at 42° C. The probe was labeled with [α-32P] dCTP by using Random Primer labeling kit (Stratagene, La Jolla, Calif.). Then, the filters were washed, dried and autoradiographed with Kodak-X-Omat XAR-film using intensifying screens at −80° C.

[6] = test system: LPS-induced PGE2 production in RAW 264.7 macrophages; assay: LPS-induced PGE2 production in RAW 264.7 macrophages (co-treatment); format: cell-based, mouse; conditions: for PGE2: 24 hours
Procedure: Un-stimulated RAW 264.7 macrophages in culture medium for 24 hours produced basal amount of PGE2 (1.5 ng/mL) in the medium.

iNOS [7] = assay: Direct iNOS enzyme activity assay in RAW 264.7 cell lysates; format: biochemical, mouse
COX-2 [8] = assay: LPS-induced COX-2 expression in RAW264.7 macrophages (western/northern blot); format: cell-based, mouse
Procedure: as §2, §1

RAW264.7 cells = conditions: mouse, 20 μg/ml
iNOS [9] = assay: LPS-induced nitrite production and iNOS expression in Bcl-2-overexpressed RAW264.7 cells; format: cell-based, mouse; conditions: 20 μg/ml, LPS 100 ng/ml, Bcl-2/RAW-1 and Bcl-2/RAW-2 cells
[10] = 20 μM for 30 min after LPS 6 hours
[11] = LPS + L-NAME (2 mM) + compound 40 μM
[12] = LPS + NLA (2 mM) + compound 40 μM
[13] = different concentrations together with LPS for 24 hours
[14] = 20 μM added for 12 hours after LPS (100 ng/ml) 12 hours pretreatment
[15] = 40 μM added for 12 hours after LPS (100 ng/ml) 12 hours pretreatment

## cuphiin D1
NF-kB (p65) / IkB
  LPS-induced increase of nuclear p65 and decrease of cytosolic IkB: did not block

## oenothein B
NF-kB (p65) / IkB
  LPS-induced increase of nuclear p65 and decrease of cytosolic IkB: significantly inhibited

## Cc1cnc(C(=O)NCCc2ccc(S(=O)(=O)NC(=O)NC3CCCCC3)cc2)cn1 [glipizide, reference compound]
[1]; arteries without endothelial cells, U-46619
  effect of the blocker/inhibitor on oroxylin A-induced relaxation: did not affect

## COc1ccc2c(c1)c(CC(=O)O)c(C)n2C(=O)c1ccc(Cl)cc1 [indomethacin, reference compound]
COX-2 [2]; [10]
  PGE2: 2.0 ± 0.7 ng/mL
COX-2 [2]
  PGE2 production using added arachidonic acid as a substrate: significantly inhibited

## COc1c(O)cc(O)c2c(=O)cc(-c3ccccc3)oc12 [wogonin, 5,7-dihydroxy-8-methoxy flavone]
[3]; [11]
  NO: 6.8 ± 0.5 μmole/4 × 10^5
[3]; [12]
  NO: 6.7 ± 0.7 μmole/4 × 10^5
[3]; [13]
  LPS-induced nitrite production: significant concentration-dependent inhibition
iNOS [4]; [14]
  NO in medium: 16.5 ± 0.3 μM/6 × 10^5 cells
iNOS [4]; [15]
  NO in medium: 16.3 ± 0.3 μM/6 × 10^5 cells
iNOS [5]
  increased expression of iNOS in NLA or L-NAME plus LPS treated cells: inhibited
[6]; [11]
  PGE2: 2.3 ± 0.7 ng/mL
[6]; [12]
  PGE2: 2.1 ± 0.4 ng/mL
[6]; co-treatment 20 and 40 μM, LPS (100 ng/mL) 24 hours
  LPS-induced PGE2 production: inhibited

## O=C(O)[C@H]1O[C@@H](Oc2cc3oc(-c4ccccc4)cc(=O)c3c(O)c2O)[C@H](O)[C@@H](O)[C@@H]1O [baicalin]
[3]; [11]
  NO: 8.5 ± 0.9 μmole/4 × 10^5
[3]; [12]
  NO: 7.1 ± 0.3 μmole/4 × 10^5
[3]; Mus musculus, RAW264.7, together with LPS (100 μg/mL) for 24 hours, n=3, read-out: IC50 in inhibiting LPS-induced NO production
  IC50: 15 ± 1.4 µM
[3]; [13]
  LPS-induced nitrite production: significant concentration-dependent inhibition
iNOS [7]
  direct effect on iNOS enzyme activity: did not directly affect
iNOS [7]; 20 μM added to lysate of LPS (100 ng/mL, 12 hr)-treated cells
  iNOS specific activity: NO formation: 8.7 ± 1.0 μM/200 μg total protein
iNOS [7]; 40 μM added to lysate of LPS (100 ng/mL, 12 hr)-treated cells
  iNOS specific activity: NO formation: 9.0 ± 1.1 μM/200 μg total protein
iNOS [7]; lysates of LPS-pretreated cells incubated with 20 μM for 12 hours
  iNOS specific activity: NO formation: 8.7 ± 1.3 μM/200 μg protein
iNOS [7]; lysates of LPS-pretreated cells incubated with 40 μM for 12 hours
  iNOS specific activity: NO formation: 9.4 ± 2.1 μM/200 μg protein
iNOS [7]; lysates of LPS-treated cells
  NO production by direct enzyme activity assay, compound added to lysate (Table 3): did not inhibit
COX-2 [8]; 20, 40 μM with LPS (100 ng/mL) for 24 hours
  LPS-induced COX-2 protein: did not inhibit
COX-2 [8]; no LPS
  basal COX-2 expression, compound alone: did not affect
iNOS [4]; [14]
  NO in medium: 14.5 ± 0.5 μM/6 × 10^5 cells
iNOS [4]; [15]
  NO in medium: 14.8 ± 1.5 μM/6 × 10^5 cells
iNOS [4]; added to cells pre-treated with LPS
  iNOS enzyme activity in intact cells by nitrite production in the medium: did not affect
COX-2 [2]
  direct effect on COX-2 enzyme activity: did not directly affect
  PGE2 production using added arachidonic acid as a substrate: no decrease
COX-2 [2]; [10]
  PGE2: 6.1 ± 0.6 ng/mL
COX-2 [2]; 40 μM for 30 min after LPS 6 hours
  PGE2: 5.9 ± 0.4 ng/mL
iNOS [5]
  increased expression of iNOS in NLA or L-NAME plus LPS treated cells: inhibited
[6]; [11]
  PGE2: 6.1 ± 0.3 ng/mL
[6]; [12]
  PGE2: 5.8 ± 1.1 ng/mL

## Cc1cc(O)c2c(c1)C(=O)c1cc(O)cc(O)c1C2=O [emodin, Emodin, reference compound]
[3]; 5, 10 or 20 μg/ml together with 100 ng/ml LPS for 24 hours
  LPS-induced nitrite production: significant inhibition
[1]; concentrations as high as 100 μM, n=4
  relaxation of cerebral arteries: very small relaxation or no response
RAW264.7 cells
  cytotoxity by MTT assay: ~30%
NF-kB (p65) / IkB
  LPS-induced increase of nuclear p65 and decrease of cytosolic IkB: did not block
iNOS [9]
  LPS-induced iNOS gene expression: inhibited
  LPS-induced nitrite production: inhibited
iNOS [5]
  blocking LPS-induced iNOS gene expression, comparison among compounds tested: potent inhibitory effect, comparable to oroxylin A
iNOS [5]; 100 ng/ml LPS, western blot
  LPS-induced iNOS protein: inhibited LPS-induced iNOS protein in a concentration-dependent manner
